Drawing on patent US11629139B2 (priority 2017, dated 2023), this text covers IC50 for 25 compounds.

In the experiment the test system is vesicular stomatitis virus particles (VSV) pseudotyped with EboV Zaire GP. As to the kind of experiment: microbe, parasite or virus in culture. The class given is cell-based. As to conditions: Vesicular stomatitis virus.
`O=C(CC1CCC(F)(F)CC1)NCC(=O)N1CCN(Cc2cc(Cl)ccc2NS(=O)(=O)C2CC2)CC1` [Compound 1379, N-(2-(4-(5-Chloro-2-(cyclopropanesulfonamido)benzyl)piperazin-1-yl)-2-oxoethyl)-2-(4,4-difluorocyclohexyl)acetamide] displayed an IC50 of about 2200 nM.

Take `Nc1c(Cl)cc(Cl)cc1CN1CCN(C(=O)CNC(=O)CC2CCC(F)(F)CC2)CC1` [Compound 1381, N-(2-(4-(2-Amino-3,5-dichlorobenzyl)piperazin-1-yl)-2-oxoethyl)-2-(4,4-difluorocyclohexyl)acetamide]: the IC50 is over 2000 nM. For `O=C(CC1CCC(F)(F)CC1)NCC(=O)N1CCN(Cc2cccc(Cl)c2Cl)CC1` [Compound 1382, N-(2-(4-(2,3-Dichlorobenzyl)piperazin-1-yl)-2-oxoethyl)-2-(4,4-difluorocyclohexyl)acetamide], the IC50 was over 2000 nM. In the case of `O=C(CC1CCC(F)(F)CC1)NCC(=O)N1CCN(Cc2cc(Cl)cc(Cl)c2)CC1` [Compound 1383, N-(2-(4-(3,5-dichlorobenzyl)piperazin-1-yl)-2-oxoethyl)-2-(4,4-difluorocyclohexyl)acetamide], the IC50 is over 2000 nM. With `COc1ccc(Cl)cc1CN1CCN(C(=O)CNC(=O)CC2CCC(F)(F)CC2)CC1` [Compound 1384, N-(2-(4-(5-Chloro-2-methoxybenzyl)piperazin-1-yl)-2-oxoethyl)-2-(4,4-difluorocyclohexyl)acetamide] the figure was 330 nM; with `Nc1cc(Cl)cc(CN2CCN(C(=O)CNC(=O)CC3CCC(F)(F)CC3)CC2)c1` [Compound 1385, N-(2-(4-(3-Amino-5-chlorobenzyl)piperazin-1-yl)-2-oxoethyl)-2-(4,4-difluorocyclohexyl)acetamide], 2200 nM. With `Nc1ccc(Cl)cc1CN1CCN(C(=O)CNC(=O)C2C3CC(F)(F)CC32)CC1` [Compound 1386, (1R,5S,6r)-N-(2-(4-(2-Amino-5-chlorobenzyl)piperazin-1-yl)-2-oxoethyl)-3,3-difluorobicyclo[3.1.0]hexane-6-carboxamide] the figure was 4400 nM. The result for `Nc1ccc(CN2CCN(C(=O)CNC(=O)CC3CCC(F)(F)CC3)CC2)cc1Cl` [Compound 1387, N-(2-(4-(4-Amino-3-chlorobenzyl)piperazin-1-yl)-2-oxoethyl)-2-(4,4-difluorocyclohexyl)acetamide] reads over 5000 nM; that for `Nc1cc(Cl)cc(CN2CCN(C(=O)CNC(=O)C3CC34CCC(F)(F)CC4)CC2)c1` (stereo not shown) [Compound 1388, N-(2-(4-(3-Amino-5-chlorobenzyl)piperazin-1-yl)-2-oxoethyl)-6,6-difluorospiro[2.5]octane-1-carboxamide], 500 nM. As to `Nc1ccc(CN2CCN(C(=O)CNC(=O)C3CC34CCC(F)(F)CC4)CC2)cc1Cl` (stereo not shown) [Compound 1390, N-(2-(4-(4-Amino-3-chlorobenzyl)piperazin-1-yl)-2-oxoethyl)-6,6-difluorospiro[2.5]octane-1-carboxamide], the IC50 turned out to be 1100 nM.

In turn, `CNc1ccc(Cl)cc1CN1CCN(C(=O)CNC(=O)C2CC23CCC(F)(F)CC3)CC1` (stereo not shown) [Compound 1391, N-(2-(4-(5-Chloro-2-(methylamino)benzyl)piperazin-1-yl)-2-oxoethyl)-6,6-difluorospiro[2.5]octane-1-carboxamide] showed an IC50 of 80 to 260 nM. The result for `O=C(Nc1ccccc1)Nc1ncc(Cl)cc1CN1CCN(C(=O)CNC(=O)C2CC23CCC(F)(F)CC3)CC1` (stereo not shown) [Compound 1392, N-(2-(4-((5-Chloro-2-(3-phenylureido)pyridin-3-yl)methyl)piperazin-1-yl)-2-oxoethyl)-6,6-difluorospiro[2.5]octane-1-carboxamide] reads 1000 nM; that for `O=C(Nc1ncc(Cl)cc1CN1CCN(C(=O)CNC(=O)C2CC23CCC(F)(F)CC3)CC1)NC1CC1` (stereo not shown) [Compound 1393, N-(2-(4-((5-Chloro-2-(3-cyclopropylureido)pyridin-3-yl)methyl)piperazin-1-yl)-2-oxoethyl)-6,6-difluorospiro[2.5]octane-1-carboxamide], over 5000 nM.

In the case of `Nc1ccc(C2CC2)cc1CN1CCN(C(=O)CNC(=O)C2CC23CCC(F)(F)CC3)CC1` (stereo not shown) [Compound 1397], the IC50 was 2400 to 4200 nM. With `O=C(NCC(=O)N1CCN(Cc2cc(Cl)ccc2O)CC1)C1CC12CCC(F)(F)CC2` (stereo not shown) [Compound 1398, N-(2-(4-(5-Chloro-2-hydroxybenzyl)piperazin-1-yl)-2-oxoethyl)-6,6-difluorospiro[2.5]octane-1-carboxamide], the IC50 was 75 to 320 nM. The result for `CCC1(CC)CC1C(=O)NCC(=O)N1CCN(Cc2cc(Cl)ccc2O)CC1` (stereo not shown) [Compound 1399, N-(2-(4-(5-Chloro-2-hydroxybenzyl)piperazin-1-yl)-2-oxoethyl)-2,2-diethylcyclopropane-1-carboxamide] reads 220 nM; that for `O=C(CC1CCC(F)(F)CC1)NCC(=O)N1CCN(Cc2cc(Br)ccc2O)CC1` [Compound 1400, N-(2-(4-(5-Bromo-2-hydroxybenzyl)piperazin-1-yl)-2-oxoethyl)-2-(4,4-difluorocyclohexyl)acetamide], 670 nM; that for `O=C(CC1CCC(F)(F)CC1)NCC(=O)N1CCN(Cc2cc(Cl)cc(Cl)c2O)CC1` [Compound 1401, N-(2-(4-(3,5-Dichloro-2-hydroxybenzyl)piperazin-1-yl)-2-oxoethyl)-2-(4,4-difluorocyclohexyl)acetamide], 3700 nM. For `O=C(CC1CCC(F)(F)CC1)NCC(=O)N1CCN(Cc2cc(Cl)cc(F)c2O)CC1` [Compound 1402, N-(2-(4-(5-Chloro-3-fluoro-2-hydroxybenzyl)piperazin-1-yl)-2-oxoethyl)-2-(4,4-difluorocyclohexyl)acetamide], the IC50 came to 2900 nM. `O=C(CC1CCC(F)(F)CC1)NCC(=O)N1CCN(Cc2cc(Cl)ccc2O)CC1` [Compound 1403, N-(2-(4-(5-Chloro-2-hydroxybenzyl)piperazin-1-yl)-2-oxoethyl)-2-(4,4-difluorocyclohexyl)acetamide] yielded an IC50 of 190 to 730 nM. `O=C(NCC(=O)N1CCN(Cc2cc(Cl)cc(F)c2O)CC1)C1CC12CCC(F)(F)CC2` (stereo not shown) [Compound 1404, N-(2-(4-(5-chloro-3-fluoro-2-hydroxybenzyl)piperazin-1-yl)-2-oxoethyl)-6,6-difluorospiro[2.5]octane-1-carboxamide] returned an IC50 of 630 nM. In the case of `O=C(NCC(=O)N1CCN(Cc2cc(Cl)cc3cccnc23)CC1)C1CC12CCC(F)(F)CC2` (stereo not shown) [Compound 1405, N-(2-(4-((6-Chloroquinolin-8-yl)methyl)piperazin-1-yl)-2-oxoethyl)-6,6-difluorospiro[2.5]octane-1-carboxamide], the IC50 is 70 to 260 nM. As for `O=C(CC1CCC(F)(F)CC1)NCC(=O)N1CCN(Cc2cc(Cl)cc3cn[nH]c23)CC1` [Compound 1406, N-(2-(4-((5-Chloro-JH-indazol-7-yl)methyl)piperazin-1-yl)-2-oxoethyl)-2-(4,4-difluorocyclohexyl)acetamide], 460 nM corresponded to half-maximal inhibition (IC50).

Compound `Nc1c(Cl)cccc1CN1CCN(C(=O)CNC(=O)C2CC23CCC(F)(F)CC3)CC1` (stereo not shown) [Compound 1407, N-(2-(4-(2-Amino-3-chlorobenzyl)piperazin-1-yl)-2-oxoethyl)-6,6-difluorospiro[2.5]octane-1-carboxamide] yielded an IC50 of 230 to 500 nM. The compound `O=C(CC1CCC(F)(F)CC1)NCC(=O)N1CCN(Cc2ccc(F)c(Cl)c2F)CC1` [Compound 1408] displayed an IC50 of 4000 nM. This counts as single-digit micromolar.
